Test results: patent US10834886B2, “Switchgrass cultivar PanIR” (priority 2017, dated 2020)

Experiments:
[1] = tested on: switchgrass cultivars, Alamo and Kanlow; settings: pre-plant application; cited from earlier work
switchgrass stands = settings: in vivo; cited from earlier work
[2] = tested on: Alamo (Cycle0) lowland switchgrass; assay: Agar/growth chamber germination on water agar + imazapic; format: in vivo, Panicum virgatum; settings: controlled conditions
From the text: (§1) Since field emergence relies on soil tilth, rainfall, planter depth, and a host of other conditions, the inventors opted for a more uniform method of testing resistance: imazapic-dosed water agar. Data from germination under controlled conditions indicated significant progress for resistance to imazapic (Table 3) over three cycles of selection.

PanIR Cycle3 switchgrass = assay: as above; format: in vivo, Panicum virgatum; settings: 2.3 times higher rate, controlled conditions
From the text: as §1

[3] = tested on: Indiangrass (resistant check); assay: Field emergence: seedlings surviving imazapic application; format: in vivo, Sorghastrum nutans; settings: 14 oz/A
Procedure: (§2) Plants were seeded in July and August of 2014 and during May of 2015. Data presented in Table 4 indicates 2014 testing at three locations (Brooksville, Newton, and Starkville). At all locations, PanIR seedling numbers exceeded all other generations of selection as well as the resistant check (indiangrass).

[4] = tested on: Alamo (Cycle 0) switchgrass; assay: as above; format: in vivo, Panicum virgatum; settings: 14 oz/A
Procedure: as §2

Cycle 1 switchgrass = assay: as above; format: in vivo, Panicum virgatum; settings: 14 oz/A
Procedure: as §2

Cycle 2 switchgrass = assay: as above; format: in vivo, Panicum virgatum; settings: 14 oz/A
Procedure: as §2

[5] = tested on: PanIR (Cycle 3) switchgrass; assay: as above; format: in vivo, Panicum virgatum; settings: 14 oz/A
Procedure: as §2

Rapid Germ Switchgrass = assay: as above; format: in vivo, Panicum virgatum; settings: 14 oz/A
Procedure: as §2

[6] = tested on: Alamo switchgrass seedlings (Cycle0); assay: Herbicide screening of seedlings, Zero: First Generation Selection; format: in vivo, Panicum virgatum
Procedure: Selection for herbicide resistance was conducted using methods similar to the study performed by Bahler and others (1983). Heavy duty plastic and metal trays measuring 51.5 cm×36.5 cm were used to hold the germinating seedlings during growth and also allowed for easy maintenance and efficient application of herbicide. The testing was conducted in a greenhouse that maintained a nightly temperature of 20° C. and a daily temperature of 30° C. Before the autumnal equinox, day length was not supplemented for the experiment. After the equinox, light was extended to 16 hrs. Day length is a concern due to switchgrass' photoperiodic nature. Eight trays represent a replicate, which were repeated over time. Each tray was filled with autoclaved field soil approximately ¾ full. A 2.5 cm×30.5 cm piece of PVC pipe was used to form ten micro-furrows spaced at 5 cm within each tray. Nine of the ten rows were planted with approximately […] Alamo switchgrass seed (Sharp Brothers, Healy, Kans.). The remaining, randomly selected row was planted with 250 indiangrass seed (MSU 3rd cycle of selection for precocious germination). One hundred (100) seed were evenly dispersed within each furrow of the flat; flats were top-dressed with 0.63 cm of autoclaved field soil. The trays were watered on a daily basis. Emergence of the seedlings usually took place 6-8 days after planting. Once the seedlings broke the soil surface, they were allowed to grow to the three leaf stage (approximately 14 days). A calibrated spray chamber was used to apply the herbicide to the seedlings in the trays. For imazapic, the recommended rate is 140 g a.i./ha on mixed grassland, applied with less than 93.54 liters of water per hectare, sprayed at a constant pressure of 40 psi. A spray adjuvant (nonionic surfactant) was added to the formulation. In order to achieve the correct amounts for the spray mixture, the following calculations were made: (8 fl.oz./1 ac.)×(1 ac./15 gal.sol.)×(1 gal./128 fl.oz.sol.)×(20 f.oz.sol./1 bottle)×(3785 ml/128 fl.oz.)=2.46 ml/1 bottle H2O (3-1) The formulation requires 2.46 mls of Plateau®, 1.5 mls of surfactant, and 556 mls of water to fill the spray bottle for the chamber. The trays were placed two at a time in the chamber and sprayed at a fixed speed ([…]) to ensure proper dosage. A dose response curve was conducted on the sixth trial to determine the rate of Plateau® that would kill a majority of the switchgrass seedlings (Table 1).
The upper limit was 245 g a.i./ha, which exceeded the labeled rate for big bluestem and indiangrass. […] Eight trays represented the curve and were assessed on the amount of discoloration relative to the unsprayed tray. […]

[7] = tested on: Cycle1 switchgrass seedlings; assay: Herbicide screening of seedlings, First: Second Generation Selection; format: in vivo
Procedure: Subsequent testing of the first generation seed/seedlings was conducted in the same manner as the initial herbicide screenings. The planting of the trays consisted of 8 rows of the first generation, one row Alamo, and one row indiangrass (tolerant control).
Seedlings of Cycle1 (315,360) were screened for tolerance to 14 oz/A (2×) rate of Plateau®. Ninety-seven (97) survived the initial imazapic application. Sixty-eight (68) succumbed to a second (8 oz/A) application leaving twenty-nine (29) tolerant individuals which were planted in an isolated crossing block at Longview, Miss. (33.404999, −88.938283) as Cycle2.

SMILES: CCC(CC)Nc1c([N+](=O)[O-])cc(C)c(C)c1[N+](=O)[O-] [Pendimethalin, pendimethalin]
- mortality of stands [1]: up to 50%

SMILES: CCNc1nc(Cl)nc(NC(C)C)n1 [atrazine]
- effect on switchgrass stands (switchgrass stands): no deleterious effects

SMILES: Cc1cnc(C2=NC(C)(C(C)C)C(=O)N2)c(C(=O)O)c1 (stereo not shown) [imazapic, 5-methyl-2-[4-methyl-5-oxo-4-(propan-2-yl)-4,5-dihydro-1H-imidazol-2-yl]pyridine-3-carboxylic acid]
- resistance as percentage of the population [2]: approximately 3%
- resistance as percentage of the population (PanIR Cycle3 switchgrass): about 93.6%
- Number of seedlings surviving, 42 days after spraying ([3]; Brooksville 2014): 16.25^†B* seedlings emerged per 30 cm of row
- Number of seedlings surviving, 42 days after spraying ([3]; Brooksville 2015): 24.50^†B* seedlings emerged per 30 cm of row
- Number of seedlings surviving, 42 days after spraying ([3]; Newton 2014): 14.50 B seedlings emerged per 30 cm of row
- Number of seedlings surviving, 42 days after spraying ([3]; Starkville 2014): 19.75 B seedlings emerged per 30 cm of row
- Number of seedlings surviving, 42 days after spraying ([3]; Starkville 2015): 13.33 B seedlings emerged per 30 cm of row
- Number of seedlings surviving, 42 days after spraying ([4]; Brooksville 2014): 2.00 B seedlings emerged per 30 cm of row
- Number of seedlings surviving, 42 days after spraying ([4]; Brooksville 2015): 5.75 BC seedlings emerged per 30 cm of row
- Number of seedlings surviving, 42 days after spraying ([4]; Newton 2014): 6.50 B seedlings emerged per 30 cm of row
- Number of seedlings surviving, 42 days after spraying ([4]; Starkville 2014): 8.25 BC seedlings emerged per 30 cm of row
- Number of seedlings surviving, 42 days after spraying ([4]; Starkville 2015): 1.00 B seedlings emerged per 30 cm of row
- Number of seedlings surviving, 42 days after spraying (Cycle 1 switchgrass; Brooksville 2014): 8.25 B seedlings emerged per 30 cm of row
- Number of seedlings surviving, 42 days after spraying (Cycle 1 switchgrass; Brooksville 2015): 19.25 BC seedlings emerged per 30 cm of row
- Number of seedlings surviving, 42 days after spraying (Cycle 1 switchgrass; Newton 2014): 10.25 B seedlings emerged per 30 cm of row
- Number of seedlings surviving, 42 days after spraying (Cycle 1 switchgrass; Starkville 2014): 3.25 C seedlings emerged per 30 cm of row
- Number of seedlings surviving, 42 days after spraying (Cycle 1 switchgrass; Starkville 2015): 2.00 B seedlings emerged per 30 cm of row
- Number of seedlings surviving, 42 days after spraying (Cycle 2 switchgrass; Brooksville 2014): 14.25 B seedlings emerged per 30 cm of row
- Number of seedlings surviving, 42 days after spraying (Cycle 2 switchgrass; Brooksville 2015): 18.75 BC seedlings emerged per 30 cm of row
- Number of seedlings surviving, 42 days after spraying (Cycle 2 switchgrass; Newton 2014): 13.00 B seedlings emerged per 30 cm of row
- Number of seedlings surviving, 42 days after spraying (Cycle 2 switchgrass; Starkville 2014): 13.75 BC seedlings emerged per 30 cm of row
- Number of seedlings surviving, 42 days after spraying (Cycle 2 switchgrass; Starkville 2015): 5.67 B seedlings emerged per 30 cm of row
- Number of seedlings surviving, 42 days after spraying ([5]; Brooksville 2014): 53.00 A seedlings emerged per 30 cm of row
- Number of seedlings surviving, 42 days after spraying ([5]; Brooksville 2015): 115.75 A seedlings emerged per 30 cm of row
- Number of seedlings surviving, 42 days after spraying ([5]; Newton 2014): 43.00 A seedlings emerged per 30 cm of row
- Number of seedlings surviving, 42 days after spraying ([5]; Starkville 2014): 49.50 A seedlings emerged per 30 cm of row
- Number of seedlings surviving, 42 days after spraying ([5]; Starkville 2015): 16.00 A seedlings emerged per 30 cm of row
- Number of seedlings surviving, 42 days after spraying (Rapid Germ Switchgrass; Brooksville 2014): 2.75 B seedlings emerged per 30 cm of row
- Number of seedlings surviving, 42 days after spraying (Rapid Germ Switchgrass; Brooksville 2015): 0.00 C seedlings emerged per 30 cm of row
- Number of seedlings surviving, 42 days after spraying (Rapid Germ Switchgrass; Newton 2014): 2.00 B seedlings emerged per 30 cm of row
- Number of seedlings surviving, 42 days after spraying (Rapid Germ Switchgrass; Starkville 2014): 2.00 C seedlings emerged per 30 cm of row
- Number of seedlings surviving, 42 days after spraying (Rapid Germ Switchgrass; Starkville 2015): 1.00 B seedlings emerged per 30 cm of row
- selection intensity ([6]; 364,650 seedlings, 63 survivors, 245 g a.i./ha): 0.0172%
- selection intensity ([6]; Cycle0 (Alamo): 63 individuals selected out of 306,000 seedlings): 0.0205%
- individuals surviving the initial screening ([6]; approximately 364,650 Alamo individuals screened, 8 oz/A): 78 individuals
- individuals remaining in base population after second screening ([6]; the 78 survivors exposed to one-time application of 14 oz/A): 63 individuals
- selection intensity ([7]; Cycle1: 29 seedlings selected out of 36,441 seedlings): 0.0795%
- mortality rate ([7]; seedlings produced from the first cycle polycross of selection): greater than 75%
